Assay results taken from article PMC6264767 (Molecules, 2011).
Like-named read-outs stand apart in the source and are kept apart here.

Assays:
[1] = tested on: HEL cell cultures; settings: for MCC (minimum cytotoxic concentration): human
[2] = tested on: HSV-1 TK^− KOS ACV^r; assay: microbe, parasite or virus in culture; assay type: cell-based, herpes simplex virus-1; settings: Human alphaherpesvirus 1, HEL
[3] = tested on: HSV-2 (G); assay: microbe, parasite or virus in culture; assay type: cell-based, herpes simplex virus type 2; settings: Human alphaherpesvirus 2, HEL
[4] = tested on: Vaccinia virus; assay: microbe, parasite or virus in culture; assay type: cell-based; settings: Orthopoxvirus vaccinia, HEL
[5] = tested on: Vesicular stomatitis virus; assay: microbe, parasite or virus in culture; assay type: cell-based; settings: HEL, read-out: EC50 Vesicular stomatitis virus
[6] = tested on: HSV-1 (KOS); assay: microbe, parasite or virus in culture; assay type: cell-based, herpes simplex virus type 1; settings: Human alphaherpesvirus 1, HEL
[7] = tested on: Feline Herpes Virus; assay: organism not typed; assay type: cell-based; settings: CRFK, read-out: EC50 Feline Herpes Virus
[8] = tested on: Feline Corona Virus (FIPV); assay: microbe, parasite or virus in culture; assay type: cell-based; settings: Alphacoronavirus 1, CRFK, read-out: EC50 Feline Corona Virus (FIPV)
[9] = in vitro; settings: cat
[10] = read-out: EC50 HSV-1 TK^− KOS ACV^r
[11] = read-out: inhibitory activity against HSV-1 TK^− KOS (ACV^r), one range given for several viruses
[12] = read-out: inhibitory activity against HSV-2 (G), one range given for several viruses
[13] = read-out: inhibitory activity against HSV-1 (KOS), one range given for several viruses

Structure (SMILES)	MCC (minimum cytotoxic concentration) [1]	EC50 [2, 10]	melting point	EC50 ([3]; read-out: EC50 HSV-2 (G))	EC50 ([4]; read-out: EC50 Vaccinia virus)	EC50 [5]	EC50 ([6]; read-out: EC50 HSV-1 (KOS))	EC50 [7]	EC50 [8]	CC50 [9]	cytostatic activity at 100 µM ([1]; 100 µM)	EC50 [2, 11]	EC50 [3, 12]	EC50 [6, 13]	EC50 ([4]; read-out: inhibitory activity against vaccinia virus, one range given for several viruses)
O=c1oc2ccccc2c(O)c1C(c1ccc(C(F)(F)F)cc1)c1c(O)c2ccccc2oc1=O [Compound 7, 3,3′-(4-Trifluoromethylbenzylidene)-bis-[4-hydroxycoumarin]]	20 µM	> 4 µM	271.3 °C	> 4 µM	> 4 µM	> 4 µM	> 4 µM	–	–	–	–	–	–	–	–
CSc1ccc(C(c2c(O)c3ccccc3oc2=O)c2c(O)c3ccccc3oc2=O)cc1 [Compound 11, 3,3′-(4-Methyltiobenzylidene)-bis-[4-hydroxycoumarin]]	100 µM	> 20 µM	258.7 °C	> 20 µM	> 20 µM	> 20 µM	> 20 µM	–	–	–	–	–	–	–	–
COc1ccc(OC)c(C(c2c(O)c3ccccc3oc2=O)c2c(O)c3ccccc3oc2=O)c1 [Compound 14, 3,3′-(2,5-Dimethoxybenzylidene)-bis-[4-hydroxycoumarin]]	>100 µM	> 100 µM	181.6 °C	> 100 µM	> 100 µM	> 100 µM	> 100 µM	–	–	–	–	–	–	–	–
O=c1oc2ccccc2c(O)c1C(c1ccccc1)c1c(O)c2ccccc2oc1=O [Compound 1, 3,3′-(Benzilidene)-bis-[4-hydroxycoumarin]]	–	–	–	–	–	–	–	9.1 µM	7.5 µM	43 µM	–	–	–	–	–
COc1cc(C(c2c(O)c3ccccc3oc2=O)c2c(O)c3ccccc3oc2=O)cc([N+](=O)[O-])c1O [Compound 15, 3,3′-(4-Hydroxy-3-methoxy-5-nitrobenzylidene)-bis-[4-hydroxycoumarin]]	>100 µM	> 100 µM	199.6 °C	> 100 µM	> 100 µM	> 100 µM	> 100 µM	–	–	–	–	–	–	–	–
O=c1oc2ccccc2c(O)c1C1c2cc([N+](=O)[O-])ccc2Oc2c1c(=O)oc1ccccc21 (stereo not drawn) [Compound 19, 3-[6-Oxo-(1H)-18-nitrobenzopyrano[4,3-b]benzopyran-7-yl]-4-hydroxycoumarin]	>100 µM	50 µM	315.7 °C	45 µM	> 100 µM	> 100 µM	50 µM	–	–	–	no cytotostatic activity	45 to 50 µM	45 to 50 µM	45 to 50 µM	–
Nc1nc2c(ncn2COCCO)c(=O)[nH]1 [Acyclovir, reference compound]	>250 µM	20 µM	–	0.35 µM	> 250 µM	> 250 µM	0.3 µM	–	–	–	–	–	–	–	–
COc1cc(OC)c2c(c1)Oc1c(c(=O)oc3ccccc13)C2c1c(O)c2ccccc2oc1=O (stereo not drawn) [Compound 20, 3-[6-oxo-(1H)-15,17-dimethoxybenzopyrano[4,3-b]benzopyran-7-yl]-4-hydroxycoumarin]	100 µM	> 20 µM	287.9 °C	> 20 µM	> 20 µM	> 20 µM	> 20 µM	7.1 µM	6.4 µM	27 µM	–	–	–	–	–
O=c1[nH]c(=O)n([C@H]2C[C@H](O)[C@@H](CO)O2)cc1/C=C/Br [Brivudin, (E)-5-(2-bromovinyl)-2’-deoxyuridine, reference compound]	>250 µM	50 µM	–	182 µM	3.2 µM	> 250 µM	0.06 µM	–	–	–	–	–	–	–	–
Nc1nc(O)c2ncn(COC(CO)CO)c2n1 [Ganciclovir, 9-[(1,3-dihydroxy-2-propoxy)methyl]guanine, reference compound]	>100 µM	0.1 µM	–	0.03 µM	> 100 µM	> 100 µM	0.025 µM	4.9 µM	> 100 µM	> 100 µM	–	–	–	–	–
O=c1oc2ccccc2c(O)c1C(c1ccc(O)c(O)c1)c1c(O)c2ccccc2oc1=O [Compound 13, 3,3′-(3,4-Dihydroxybenzylidene)-bis-[4-hydroxycoumarin]]	100 µM	> 20 µM	227.5 °C	> 20 µM	> 20 µM	> 20 µM	> 20 µM	–	–	–	–	–	–	–	–
O=c1oc2ccccc2c(O)c1C(c1cccc(Br)c1)c1c(O)c2ccccc2oc1=O [Compound 3, 3,3′-(3-Bromobenzylidene)-bis-[4-hydroxycoumarin]]	–	9 µM	287 °C	9 µM	11 µM	> 20 µM	9 µM	–	–	–	–	9 to 12 µM	9 to 12 µM	9 to 12 µM	9 to 12 µM
O=c1oc2ccccc2c(O)c1C(c1ccc(Br)cc1)c1c(O)c2ccccc2oc1=O	–	–	267.2 °C	–	–	–	–	–	–	–	–	–	–	–	–
Nc1ccn(C[C@@H](CO)OCP(=O)(O)O)c(=O)n1 [Cidofovir, (S)-1-[3-hydroxy-2-(phosphonyl-methoxy)propyl]cytosine, reference compound]	>250 µM	1.5 µM	–	1.5 µM	7.9 µM	> 250 µM	0.9 µM	–	–	–	–	–	–	–	–
O=c1oc2ccccc2c(O)c1C(c1ccc([N+](=O)[O-])cc1)c1c(O)c2ccccc2oc1=O [Compound 8, 3,3′-(4-Nitrobenzylidene)-bis-[4-hydroxycoumarin]]	100 µM	> 20 µM	–	> 20 µM	> 20 µM	> 20 µM	> 20 µM	6.9 µM	8.5 µM	41 µM	–	–	–	–	–
COc1ccccc1C(c1c(O)c2ccccc2oc1=O)c1c(O)c2ccccc2oc1=O [Compound 5, 3,3′-(2-Methoxybenzylidene)bis[4-hydroxycoumarin]]	–	–	–	–	–	–	–	5 µM	7.5 µM	36 µM	–	–	–	–	–
O=c1oc2ccccc2c(O)c1C(c1ccccc1[N+](=O)[O-])c1c(O)c2ccccc2oc1=O [Compound 9, 3,3’-(2-Nitrobenzylidene)-bis-[4-hydroxycoumarin]]	–	–	202 °C	–	–	–	–	14 µM	8.3 µM	34 µM	–	–	–	–	–
O=c1oc2ccccc2c(O)c1C(c1ccc(Cl)cc1)c1c(O)c2ccccc2oc1=O [Compound 4, 3,3’-(4-Chlorobenzylidene)-bis-[4-hydroxycoumarin]]	–	–	–	–	–	–	–	7.6 µM	9.1 µM	45 µM	–	–	–	–	–
O=c1oc2ccccc2c(O)c1C(c1ccc(F)cc1)c1c(O)c2ccccc2oc1=O [Compound 6, 3,3′-(4-Fluorobenzylidene)-bis-[4-hydroxycoumarin]]	–	–	214.5 °C	–	–	–	–	8.1 µM	7.7 µM	39 µM	–	–	–	–	–
